Read-outs that look alike come from different tables or passages of the source. One block for each molecule: values may come before it.
Legend:
P20.1 antibody [1] = experiment: Sandwich ELISA, P20.1 antibody as detection antibody; format: binding, mouse; details: diluted cell supernatant, biotinylated P20.1 antibody 5 μg/mL, absorbance 405 nm
Protocol: The anti-hGH monoclonal antibody HGH-B was immobilized to microtiter plates. After blocking, the supernatant of cells transiently expressing the hGH-γC-P4 fusion protein having P4×1, P4×3 or P4×5 linked thereto (see FIG. 3, FIG. 4 and SEQ ID NO: 15) was added at various dilution ratios to wells of the plates, which were then allowed to stand at 4° C. overnight. In this way, such a fusion protein was captured by the antibody on the plates. After washing, a biotinylated P20.1 antibody (5 μg/mL) was allowed to react with the fusion protein at room temperature for 30 minutes. After 3-time washing, peroxidase-labeled streptavidin (Zymed) was added to the plates, which were then allowed to stand at room temperature for additional 15 minutes. After addition of peroxidase substrate (ABTS), the absorbance at 405 nm was measured.

P20.1 antibody-Sepharose = experiment: Pull-down efficiency with P20.1 antibody-immobilized beads; format: binding, mouse; details: pull-down by P20.1 antibody-Sepharose
Protocol: Three different hGH-γC-P4 fusion proteins, which have P4×1, P4×3 or P4×5, were separately expressed in HEK293T cells. The fusion protein in the separate cell culture supernatant was quantified by the sandwich ELISA (which adopts a system of hGH antibody-mediated capture+anti-BAS serum-mediated detection, and is not dependent on the responsiveness to the P20.1 antibody) (before pull-down). Aside from this, to 1 mL of the cell culture supernatant, 20 μL of the P20.1 antibody-Sepharose (bead form) was added, and then the mixture was allowed to react at 4° C. for 1 hour. After the beads were precipitated by centrifugation, the fusion protein in the supernatant was quantified by the sandwich ELISA (which adopts a system of hGH antibody-mediated capture+anti-BAS serum-mediated detection, and is not dependent on the responsiveness to the P20.1 antibody) (after pull-down). The fusion protein purified with Ni-NTA agarose was used as a standard, and based on the standard curve, the fusion protein concentrations before and after pull-down by the P20.1 antibody were determined. As is clear from Table 4, 3 to 5 repeats of the P4 sequence achieves the binding efficiency of about 80%.

P20.1 antibody [2] = experiment: Epitope analysis by ELISA with P4-Fn proteins and Ala mutants; format: binding, mouse; details: coated Fn fusion protein 10 μg/mL, P20.1 antibody 2 to 5 μg/mL, absorbance 405 nm
Protocol: The minimum peptide sequence required for recognition by the P20.1 antibody was identified by the ELISA method using various kinds of P4-Fn proteins prepared in the above (2-1). The protocol is as follows.
(1) A P4-Fn (or a mutant thereof) solution diluted at 10 μg/mL was added at 50 μL/well to 96-well plates, which were then allowed to stand (4° C., 16 hours).
(2) The supernatant of each well was removed with an aspirator, a 1% BSA solution in Tris-buffered saline (TBS; 20 mM Tris-HCl, 150 mM NaCl, pH 7.5) was added at 200 μL/well, and the plates were allowed to stand at room temperature for 1 hour.
(3) A P20.1 antibody solution (2 to 5 μg/mL) was added at 50 μL/well and the plates were allowed to stand at room temperature for 1 hour.
(4) Each well was washed with 200 μL of TBS 3 times.
(5) A peroxidase-labeled anti-mouse IgG (1/1000 dilution) was added at 50 μL/well, and the plates were allowed to stand at room temperature for 30 minutes.
(6) Each well was washed with 200 μL of TBS 4 times.
(7) A peroxidase chromogenic substrate (ABTS) was added at 100 μL/well, the plates were allowed to stand at room temperature for 5 to 10 minute, and then the absorbance of the solution in each well was measured at 405 nm.
The ELISA results of 5 different tag peptide fusion proteins having the P4 peptide attached to the N terminus of the Fn are shown in FIG. 5. […]

P20.1 antibody [3] = experiment: Kinetics analysis by surface plasmon resonance, P4 sequence repeats over P20.1 antibody-immobilized sensor chip; format: binding, mouse; details: hGH-γC fusion proteins, flow rate 20 μL/min, Biacore X-100
Protocol: For improvement of the efficacious affinity for the P20.1 antibody, tag peptide fusion proteins having a repeated sequence, specifically 1, 3 or 5 repeats of the P4 sequence (referred to as P4×1, P4×3 or P4×5, in the above order) were prepared (see the above (2-2)). These proteins were allowed to separately pass at a flow rate of 20 μL/min over the P20.1 antibody-immobilized sensor chip, and kinetics analysis was conducted using Biacore X-100 (GE Healthcare).

[4] = test system: P4(20)-Fn protein-P20.1 antibody binding; experiment: Competitive dissociation by peptide (ELISA); details: peptide concentration of 0.1 mg/mL, 30 minutes
Protocol: For examination on whether an excess of free peptides can disrupt protein-P20.1 antibody binding, at the final washing step of the (3-1) ELISA experiment using the P4(20)-Fn protein, buffer solutions containing different concentrations of the P4(C8) peptide (8-residue peptide PRGYPGQV (SEQ ID NO: 20) synthesized by the Fmoc method) were added to wells and the plates were allowed to stand for 30 minutes.

[5] = test system: P4×3-tagged hGH fusion protein bound to P20.1 antibody-Sepharose; experiment: Elution of P4×3-tagged hGH fusion protein from P20.1 antibody-Sepharose; details: in TBS, room temperature, 10 minutes
Protocol: With 8 mL of the culture supernatant of cells expressing the P4×3-tagged hGH fusion protein, 100 μL of the P20.1 antibody-Sepharose (0.2 mg in terms of the P20.1 antibody, bead form) was mixed, and then the mixture was allowed to react at 4° C. for 3 hours. After the reaction, the beads were washed with 3 mL of Tris-buffered saline (TBS; 20 mM Tris-HCl, 150 mM NaCl, pH 7.5), and 300 μL of an eluent as shown below was added to and mixed with the beads at room temperature for 10 minutes. The effluent obtained by each eluent was concentrated and then was subjected to SDS gel electrophoresis at an equal amount. For comparison, affinity binding was also performed using Ni-NTA beads on the same conditions as above, and the effluent obtained by use of imidazole as an eluent was analyzed simultaneously.
The above-mentioned numbers correspond to the lane numbers in FIG. 23 (a). “Ni” indicates the effluent from Ni-NTA beads. As shown in FIG. 23 (a), the tagged fusion protein which was bound to the P20.1 antibody-Sepharose was not only eluted with 0.1 mg/mL or more of the P4(C8) peptide, but also completely eluted by combined use of propylene glycol and sodium chloride. […]

[6] = Phage display random screening of the peptide sequence recognizable by the P20.1 antibody; format: binding; details: panning with P20.1 antibody-immobilized magnetic beads
Source text: For extensive search for the peptide sequence recognizable by the P20.1 antibody, the phage display method was employed. The phagemid shown in FIG. 11 was constructed for insertion of the randomized 7-amino-acid peptide library (all of them have Tyr2 and Gln5 in common) into the N terminus of the gIII coat protein of M13 phage. As a result, the phage library of 10^7 members was obtained.
Through panning by use of P20.1 antibody-immobilized magnetic beads, a number of clones bound to the beads were obtained. The sequence of the variable region in these different clones was decoded by DNA sequencing, and the sequence pattern as shown in FIG. 12 was obtained. […] Namely, it can be said that the P20.1 antibody generally has a high affinity for the following peptide sequence: X1-Tyr2-Pro3-Gly4-Gln5-X6: SEQ ID NO:21 (wherein X1 is any amino acid residue; Pro3 may be an amino acid having a small side chain, such as S, V, C, A, T, E, G and D; and X6 is any hydrophobic amino acid). X-Ray Crystallography of the P20.1 Antibody Fab Fragment-Peptide Complex (5-1) Amino Acid Sequencing of the P20.1 Antibody Variable Region DNA Cloning from Hybridoma

P4(20)-Fn = biological target: T1, P4(20)-Fn (Homo sapiens, UniProt P02751); experiment: Surface plasmon resonance analysis (Biacore): binding affinity of P20.1 antibody for P4 peptide sequence
T1 construct: the 9th to 10th region of the Fn3 domain of human fibronectin (185 residues); made in house; host or cells: pET11c vector
Protocol: For examination on the binding affinity of the P20.1 antibody for the P4 peptide sequence, the surface plasmon resonance analysis using Biacore was performed. After the P4(20)-Fn (see FIG. 1) purified in the (2-1) was biotinylated and then captured by a streptavidin-immobilized sensor chip, a purified P20.1 antibody was allowed to flow over the prepared sensor chip at various concentrations. […] Similarly, a commercially available Flag ([…] (SEQ ID NO: 19)) and corresponding antibody M2 were used for examination on the affinity of M2 for Flag-tagged Fn (Flag-Fn).

[7] = P20.1 antibody flowed over biotinylated P4(20)-Fn captured on streptavidin sensor chip

Molecule: P4 × 3: hGH/fibrinogen γC fusion protein tagged with 3 repeats of the P4 sequence GYPGQV
signals in sandwich ELISA (P20.1 antibody [1]): dose-dependent signals were observed in 30-fold or less diluted supernatant
Binding efficiency (P20.1 antibody-Sepharose): 78%

Molecule: GYPGQV [P4 sequence]
recognition by / responsiveness to the P20.1 antibody (P20.1 antibody [2]): enough for recognition by the P20.1 antibody

Molecule: P4 × 5: hGH/fibrinogen γC fusion protein tagged with 5 repeats of the P4 sequence GYPGQV
signals in sandwich ELISA (P20.1 antibody [1]): dose-dependent signals were observed in 30-fold or less diluted supernatant
Binding efficiency (P20.1 antibody-Sepharose): 80%
affinity / binding capacity for the P20.1 antibody (P20.1 antibody [3]): further increased binding capacity

Molecule: GGDDSTPSILPAPRGYPGQVC [P4 peptide]
recognition by / responsiveness to the P20.1 antibody (P20.1 antibody [2]): can be recognized by the P20.1 antibody

Second part, led by results:

Binding efficiency (P20.1 antibody-Sepharose): 14%
affinity / binding capacity for the P20.1 antibody (P20.1 antibody [3]): extremely weak affinity
Molecule: P4: hGH/fibrinogen γC fusion protein tagged with 1 repeat of the P4 sequence GYPGQV
signals in sandwich ELISA (P20.1 antibody [1]): only weak signals were detected in 3-fold or less diluted supernatant

dissociation of protein-P20.1 antibody binding by free peptide [4]: almost complete dissociation
Molecule: PRGYPGQV [P4(C8) peptide]
peptide concentration that eluted the tagged fusion protein [5]: ≥ 0.1 mg/mL

Ka (P4(20)-Fn; [7]): 365000 M⁻¹ s⁻¹
Kd(1/s) (P4(20)-Fn; [7]): 0.00123 s⁻¹
Kd (P4(20)-Fn; P20.1 antibody flowed over biotinylated P4(20)-Fn captured on streptavidin sensor chip, read-out: KD): 3.38 nM
Kd (P4(20)-Fn; affinity for the P4(20)-Fn, read-out: apparent dissociation equilibrium constant (Kd)): ~3.4 nM
B1: P20.1 Ab: monoclonal antibody produced by mouse-mouse hybridoma P20.1 (FERM BP-11061), IgG1 isotype, λ light chains, against N-terminal 20 residues of human PAR4 (antibody, V domains shown)
VH: QIQLVQSGPEVQKPGETVRISCKASGYTFTTAGMQWVQKMPGKSLKWIGWINTRSGVPKYAEDFKGRFAFSLETSASIAYLHINNLKNEDTATYFCAREGPGFVYWGQGTLVTVSA
VL: QTVVTQESALTTSPGETVTLTCRSSTGVVTTSNYANWVQEKPDHLFTGLIVGTNNRVPGVPPRFSGSLIGDKAALTITGAQTEDEAIYFCALWYSNHWVFGGGTKLTVL
peptide sequence required for recognition [6]: requires the presence of tyrosine, glycine and glutamine at position 2, 4 and 5
